US20250127801A1, “BRIDGED TRICYCLIC CARBAMOYLPYRIDONE COMPOUNDS AND USES THEREOF” (priority 2023, published 2025)
≈ marks a conversion by molar mass, not a printed value. Read-outs that look alike come from different tables or passages of the source.

Assays:
in vitro = details: human; for CC50 at 5 days: uninfected MT-4 cells
HIV-1 (IIIB) = assay: microbe, parasite or virus in culture; format: cell-based
physchem = details: 23 °C, thermodynamic from solid; for solubility thermodynamic at 24 h: FaSSIF; for solubility thermodynamic: fassif
[1] = Human immunodeficiency virus 1, MT4, 120 h, HIV-1 (IIIB) replication in MT-4 cells, 5 days incubation, Cell Titer Glo, read-out: MT4 EC50
[2] = Human immunodeficiency virus 1, IIIB, MT4, 120 h, read-out: MT4 EC50 (nM)

In the case of `CC1=NO[C@@]2(CC[C@H](C)N3C[C@H]2n2cc(C(=O)NCc4ccc(F)cc4F)c(=O)c(OCOC(=O)N(C)c4ncccc4COC(=O)[C@@H](N)C(C)C)c2C3=O)C1` [Compound 12, (2-((((((3′S,5S,7′R)-10′-((2,4-difluorobenzyl)carbamoyl)-3,3′-dimethyl-1′,11′-dioxo-1′,4′,5′,11′-tetrahydro-3′H,4H,7′H-spiro[isoxazole-5,6′-[2,7]methanopyrido[1,2-a][1,4]diazonin]-12′-yl)oxy)methoxy)carbonyl)(methyl)amino)pyridin-3-yl)methyl L-valinate], the CC50 at 5 days (in vitro) is reported as 14.6 µM, the EC50 (HIV-1 (IIIB); [1]) is reported as 4.33 nM and the solubility thermodynamic at 24 h (physchem) is reported as 2700 µg/mL (≈ 3.47 mM).

Molecule `CC1=NO[C@@]2(CC[C@H](C)N3C[C@H]2n2cc(C(=O)NCc4ccc(F)cc4F)c(=O)c(OCOC(=O)N(C)C[C@@H]4CCCN4)c2C3=O)C1` [Compound 13, (((3′S,5S,7′R)-10′-((2,4-difluorobenzyl)carbamoyl)-3,3′-dimethyl-1′,11′-dioxo-1′,4′,5′,11′-tetrahydro-3′H,4H,7′H-spiro[isoxazole-5,6′-[2,7]methanopyrido[1,2-a][1,4]diazonin]-12′-yl)oxy)methyl methyl(((S)-pyrrolidin-2-yl)methyl)carbamate] has a CC50 at 5 days (in vitro) of 10.8 µM, an EC50 (HIV-1 (IIIB); [1]) of 0.762 nM and a solubility thermodynamic at 24 h (physchem) of 1980 µg/mL (≈ 3.02 mM).

For `CC1=NO[C@@]2(CC[C@H](C)N3C[C@H]2n2cc(C(=O)NCc4ccc(F)cc4F)c(=O)c(OCOC(=O)N(C)C[C@@H]4CCCN4C(=O)OCOP(=O)(O)O)c2C3=O)C1` [Compound 14, (phosphonooxy)methyl (2S)-2-(((((((3′S,5S,7′R)-10′-((2,4-difluorobenzyl)carbamoyl)-3,3′-dimethyl-1′,11′-dioxo-1′,4′,5′,11′-tetrahydro-3′H,4H,7′H-spiro[isoxazole-5,6′-[2,7]methanopyrido[1,2-a][1,4]diazonin]-12′-yl)oxy)methoxy)carbonyl)(methyl)amino)methyl)pyrrolidine-1-carboxylate], the CC50 at 5 days (in vitro) was 16.8 µM, the EC50 (HIV-1 (IIIB); [1]) was 1.25 nM and the solubility thermodynamic at 24 h (physchem) was 5090 µg/mL (≈ 6.28 mM).

For `COC1=NO[C@@]2(CC[C@H](C)N3C[C@H]2n2cc(C(=O)NCc4ccc(F)cc4F)c(=O)c(OCOC(=O)N(C)C[C@@H]4CCCN4)c2C3=O)C1` [Compound 15, (((3′S,5S,7′R)-10′-((2,4-difluorobenzyl)carbamoyl)-3-methoxy-3′-methyl-1′,11′-dioxo-1′,4′,5′,11′-tetrahydro-3′H,4H,7′H-spiro[isoxazole-5,6′-[2,7]methanopyrido[1,2-a][1,4]diazonin]-12′-yl)oxy)methyl methyl(((S)-pyrrolidin-2-yl)methyl)carbamate], the CC50 at 5 days (in vitro) was 14.7 µM, the EC50 (HIV-1 (IIIB); [1]) was 1.61 nM and the solubility thermodynamic at 24 h (physchem) was 1480 µg/mL (≈ 2.19 mM).

`CC1=NO[C@@]2(CC[C@H](C)N3C[C@H]2n2cc(C(=O)NCc4ccc(F)cc4F)c(=O)c(OC(=O)[C@@H]4CCCN4C(=O)OCOP(=O)(O)O)c2C3=O)C1` [Compound 17, 2-((3′S,5S,7′R)-10′-((2,4-difluorobenzyl)carbamoyl)-3,3′-dimethyl-1′,11′-dioxo-1′,4′,5′,11′-tetrahydro-3′H,4H,7′H-spiro[isoxazole-5,6′-[2,7]methanopyrido[1,2-a][1,4]diazonin]-12′-yl) 1-((phosphonooxy)methyl) (2S)-pyrrolidine-1,2-dicarboxylate] showed a CC50 at 5 days (in vitro) of 13 µM, an EC50 (HIV-1 (IIIB); [1]) of 0.93 nM and a solubility thermodynamic at 24 h (physchem) of 2540 µg/mL (≈ 3.45 mM).

With `CC1=NO[C@@]2(CC[C@H](C)N3C[C@H]2n2cc(C(=O)NCc4ccc(F)cc4F)c(=O)c(OCOC(=O)OCc4ccc(OP(=O)(O)O)cc4)c2C3=O)C1` [Compound 19, (((3′S,5S,7′R)-10′-((2,4-difluorobenzyl)carbamoyl)-3,3′-dimethyl-1′,11′-dioxo-1′,4′,5′,11′-tetrahydro-3′H,4H,7′H-spiro[isoxazole-5,6′-[2,7]methanopyrido[1,2-a][1,4]diazonin]-12′-yl)oxy)methyl (4-(phosphonooxy)benzyl) carbonate] the CC50 (in vitro) was 10.9 µM, the EC50 (HIV-1 (IIIB); [2]) was 0.71 nM and the solubility thermodynamic (physchem) was 390 µg/mL (≈ 0.522 mM).

In the case of `CC1=NO[C@@]2(CC[C@H](C)N3C[C@H]2n2cc(C(=O)NCc4ccc(F)cc4F)c(=O)c(OCOC(=O)CC(C)(C)c4c(CC(=O)O)cc(C)cc4OP(=O)(O)O)c2C3=O)C1` [Compound 20, 2-(2-(4-((((3′S,5S,7′R)-10′-((2,4-difluorobenzyl)carbamoyl)-3,3′-dimethyl-1′,11′-dioxo-1′,4′,5′,11′-tetrahydro-3′H,4H,7′H-spiro[isoxazole-5,6′-[2,7]methanopyrido[1,2-a][1,4]diazonin]-12′-yl)oxy)methoxy)-2-methyl-4-oxobutan-2-yl)-5-methyl-3-(phosphonooxy)phenyl)acetic acid], the CC50 (in vitro) is reported as 12.5 µM, the EC50 (HIV-1 (IIIB); [2]) is reported as 1.76 nM and the solubility thermodynamic (physchem) is reported as 4410 µg/mL (≈ 5.22 mM).

`CC1=NO[C@@]2(CC[C@H](C)N3C[C@H]2n2cc(C(=O)NCc4ccc(F)cc4F)c(=O)c(OCc4oc(=O)oc4C)c2C3=O)C1` [Compound 22, (3′S,5S,7′R)—N-(2,4-difluorobenzyl)-3,3′-dimethyl-12′-((5-methyl-2-oxo-1,3-dioxol-4-yl)methoxy)-1′,11′-dioxo-1′,4′,5′,11′-tetrahydro-3′H,4H,7′H-spiro[isoxazole-5,6′-[2,7]methanopyrido[1,2-a][1,4]diazonine]-10′-carboxamide] gave a CC50 at 5 days (in vitro) of 12.4 µM, an EC50 (HIV-1 (IIIB); [1]) of 1.18 nM and a solubility thermodynamic at 24 h (physchem) of 90 µg/mL (≈ 0.15 mM).

`CC1=NO[C@@]2(CC[C@H](C)N3C[C@H]2n2cc(C(=O)NCc4ccc(F)cc4F)c(=O)c(OCOC(=O)OCCC(C)(C)c4c(CC(=O)O)cc(C)cc4OP(=O)(O)O)c2C3=O)C1` [Compound 23, 2-(2-(4-((((((3′S,5S,7′R)-10′-((2,4-difluorobenzyl)carbamoyl)-3,3′-dimethyl-1′,11′-dioxo-1′,4′,5′,11′-tetrahydro-3′H,4H,7′H-spiro[isoxazole-5,6′-[2,7]methanopyrido[1,2-a][1,4]diazonin]-12′-yl)oxy)methoxy)carbonyl)oxy)-2-methylbutan-2-yl)-5-methyl-3-(phosphonooxy)phenyl)acetic acid] gave a CC50 (in vitro) of 14.6 µM, an EC50 (HIV-1 (IIIB); [2]) of 2.11 nM and a solubility thermodynamic (physchem) of 4750 µg/mL (≈ 5.43 mM).

`CC1=NO[C@@]2(CC[C@H](C)N3C[C@H]2n2cc(C(=O)NCc4ccc(F)cc4F)c(=O)c(OCOC(=O)OCCC(C)(C)c4c(CC(=O)N[C@@H](CC(=O)O)C(=O)O)cc(C)cc4OP(=O)(O)O)c2C3=O)C1` [Compound 24, (2-(2-(4-((((((3′S,5S,7′R)-10′-((2,4-difluorobenzyl)carbamoyl)-3,3′-dimethyl-1′,11′-dioxo-1′,4′,5′,11′-tetrahydro-3′H,4H,7′H-spiro[isoxazole-5,6′-[2,7]methanopyrido[1,2-a][1,4]diazonin]-12′-yl)oxy)methoxy)carbonyl)oxy)-2-methylbutan-2-yl)-5-methyl-3-(phosphonooxy)phenyl)acetyl)-L-aspartic acid] showed a CC50 (in vitro) of 12.3 µM, an EC50 (HIV-1 (IIIB); [2]) of 1.98 nM and a solubility thermodynamic (physchem) of 4900 µg/mL (≈ 4.95 mM).

Molecule `CC1=NO[C@@]2(CC[C@H](C)N3C[C@H]2n2cc(C(=O)NCc4ccc(F)cc4F)c(=O)c(OC(=O)OCCC(C)(C)c4c(CC(=O)O)cc(C)cc4OP(=O)(O)O)c2C3=O)C1` [Compound 25, 2-(2-(4-(((((3′S,5S,7′R)-10′-((2,4-difluorobenzyl)carbamoyl)-3,3′-dimethyl-1′,11′-dioxo-1′,4′,5′,11′-tetrahydro-3′H,4H,7′H-spiro[isoxazole-5,6′-[2,7]methanopyrido[1,2-a][1,4]diazonin]-12′-yl)oxy)carbonyl)oxy)-2-methylbutan-2-yl)-5-methyl-3-(phosphonooxy)phenyl)acetic acid] has a CC50 (in vitro) of 11.6 µM, an EC50 (HIV-1 (IIIB); [2]) of 1.43 nM and a solubility thermodynamic (physchem) of 4760 µg/mL (≈ 5.63 mM).

Work on `CC1=NO[C@@]2(CC[C@H](C)N3C[C@H]2n2cc(C(=O)NCc4ccc(F)cc4F)c(=O)c(OC(=O)CC(C)(C)c4c(C)cc(C)cc4OP(=O)(O)O)c2C3=O)C1` [Compound 26, (3′S,5S,7′R)-10′-((2,4-difluorobenzyl)carbamoyl)-3,3′-dimethyl-1′,11′-dioxo-1′,4′,5′,11′-tetrahydro-3′H,4H,7′H-spiro[isoxazole-5,6′-[2,7]methanopyrido[1,2-a][1,4]diazonin]-12′-yl 3-(2,4-dimethyl-6-(phosphonooxy)phenyl)-3-methylbutanoate] yielded a CC50 (in vitro) of 12.2 µM, an EC50 (HIV-1 (IIIB); [2]) of 1.13 nM and a solubility thermodynamic (physchem) of 4300 µg/mL (≈ 5.57 mM).

With `CC1=NO[C@@]2(CC[C@H](C)N3C[C@H]2n2cc(C(=O)NCc4ccc(F)cc4F)c(=O)c(OCOC(=O)CC(C)(C)c4c(C)cc(C)cc4OP(=O)(O)O)c2C3=O)C1` [Compound 27] the CC50 (in vitro) was 16.9 µM, the EC50 (HIV-1 (IIIB); [2]) was 2.75 nM and the solubility thermodynamic (physchem) was 2260 µg/mL (≈ 2.82 mM).

Molecule `CC1=NO[C@@]2(CC[C@H](C)N3C[C@H]2n2cc(C(=O)NCc4ccc(F)cc4F)c(=O)c(OC(=O)N(C)c4ncccc4CN(CC(=O)OCc4ccccc4)C(=O)OCOP(=O)(O)O)c2C3=O)C1` [Compound 33, benzyl N-((2-(((((3′S,5S,7′R)-10′-((2,4-difluorobenzyl)carbamoyl)-3,3′-dimethyl-1′,11′-dioxo-1′,4′,5′,11′-tetrahydro-3′H,4H,7′H-spiro[isoxazole-5,6′-[2,7]methanopyrido[1,2-a][1,4]diazonin]-12′-yl)oxy)carbonyl)(methyl)amino)pyridin-3-yl)methyl)-N-(((phosphonooxy)methoxy)carbonyl)glycinate] has a CC50 (in vitro) of 12.9 µM, an EC50 (HIV-1 (IIIB); [2]) of 2.34 nM and a solubility thermodynamic (physchem) of 4170 µg/mL (≈ 4.38 mM).

`COC(=O)CN(Cc1cccnc1N(C)C(=O)Oc1c2n(cc(C(=O)NCc3ccc(F)cc3F)c1=O)[C@@H]1CN(C2=O)[C@@H](C)CC[C@]12CC(C)=NO2)C(=O)OCOP(=O)(O)O` [Compound 34, methyl N-((2-(((((3′S,5S,7′R)-10′-((2,4-difluorobenzyl)carbamoyl)-3,3′-dimethyl-1′,11′-dioxo-1′,4′,5′,11′-tetrahydro-3′H,4H,7′H-spiro[isoxazole-5,6′-[2,7]methanopyrido[1,2-a][1,4]diazonin]-12′-yl)oxy)carbonyl)(methyl)amino)pyridin-3-yl)methyl)-N-(((phosphonooxy)methoxy)carbonyl)glycinate] gave a CC50 (in vitro) of 12.8 µM, an EC50 (HIV-1 (IIIB); [2]) of 1.4 nM and a solubility thermodynamic (physchem) of 4920 µg/mL (≈ 5.62 mM).
